Legend:
[1] = tested on: Jurkat; test: Cytotoxicity against human Jurkat cells assessed as cell growth inhibition incubated for 48 hrs by MTT assay; type: functional, cell-based
[2] = biological target: Programmed cell death protein 1/Programmed cell death 1 ligand 1 (Homo sapiens, UniProt Q9NZQ7); test: Inhibition of PD-1/PD-L1 (unknown origin) interaction incubated for 15 mins by HTRF assay; type: protein-complex assay
Sequence of Programmed cell death protein 1/Programmed cell death 1 ligand 1 (Q15116 whole entry): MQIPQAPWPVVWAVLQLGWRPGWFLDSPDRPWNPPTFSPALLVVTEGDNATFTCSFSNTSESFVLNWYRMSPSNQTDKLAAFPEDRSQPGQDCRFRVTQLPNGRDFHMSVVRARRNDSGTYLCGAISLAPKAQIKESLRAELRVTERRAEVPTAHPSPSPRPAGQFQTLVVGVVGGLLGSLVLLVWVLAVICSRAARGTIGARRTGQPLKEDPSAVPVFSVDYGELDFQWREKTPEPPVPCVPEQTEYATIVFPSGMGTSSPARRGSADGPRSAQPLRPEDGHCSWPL
Sequence of Programmed cell death protein 1/Programmed cell death 1 ligand 1 (Q9NZQ7 whole entry): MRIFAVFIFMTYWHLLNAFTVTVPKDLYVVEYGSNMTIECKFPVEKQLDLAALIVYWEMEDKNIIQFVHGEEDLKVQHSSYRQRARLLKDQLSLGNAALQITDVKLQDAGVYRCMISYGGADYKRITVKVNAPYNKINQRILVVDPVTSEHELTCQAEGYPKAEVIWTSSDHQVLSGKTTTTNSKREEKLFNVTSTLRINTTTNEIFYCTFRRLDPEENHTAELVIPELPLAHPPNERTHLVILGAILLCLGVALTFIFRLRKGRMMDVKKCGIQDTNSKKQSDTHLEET

Row | SMILES | IC50 [1] [nM] | IC50 [2] [nM]
1 | COc1cc(OCc2cccc(-c3ccccc3)c2C)cc(OC)c1CNCc1cnnn1[C@H]1OC[C@@H](O)[C@H](O)[C@@H]1O | 24900 | 169
2 | COc1nc(OCc2cccc(-c3ccccc3)c2C)ccc1CNCc1cn([C@@H]2OC[C@@H](O)[C@H](O)[C@H]2O)nn1 | 25500 | 110
3 | COc1nc(OCc2cccc(-c3ccccc3)c2C)ccc1CNCc1cn([C@@H]2O[C@H](CO)[C@@H](O)[C@H](O)[C@H]2O)nn1 | > 100000 | 56.1
4 | COc1ccc(CNCc2cn([C@@H]3OC[C@H](O)[C@@H](O)[C@H]3O)nn2)cc1OCc1cccc(-c2ccccc2)c1C | 53900 | 1480
5 | COc1cc(OCc2cccc(-c3ccccc3)c2C)cc(OC)c1CNCc1cn([C@@H]2O[C@@H]3CO[C@@H](c4ccccc4)O[C@H]3[C@H](O)[C@H]2O)nn1 | 4500 | 1090
6 | COc1ccc(CNCc2cn([C@@H]3OC[C@@H](O)[C@H](O)[C@H]3O)nn2)cc1OCc1cccc(-c2ccccc2)c1C | 47500 | 1780
7 | COc1cc(OCc2cccc(-c3ccccc3)c2C)cc(OC)c1CNCc1cn([C@H]2O[C@@H](C)[C@@H](O)[C@@H](O)[C@@H]2O)nn1 | 30800 | 161
8 | COc1ccc(CNCc2cn([C@@H]3O[C@@H]4CO[C@@H](c5ccccc5)O[C@H]4[C@H](O)[C@H]3O)nn2)cc1OCc1cccc(-c2ccccc2)c1C | 6200 | 2960
9 | COc1ccc(CNCc2cn([C@H]3OC[C@@H](O)[C@H](O)[C@@H]3O)nn2)cc1OCc1cccc(-c2ccccc2)c1C | 43500 | 503
10 | COc1ccc(CNCc2cn([C@@H]3OC[C@H](O)[C@H](O)[C@H]3O)nn2)cc1OCc1cccc(-c2ccccc2)c1C | 49200 | 1240
11 | COc1ccc(CNCc2cn([C@@H]3O[C@H](CO)[C@@H](O)[C@H](OC)[C@H]3O)nn2)cc1OCc1cccc(-c2ccccc2)c1C | 50000 | 384
12 | COc1ccc(CNCc2cn([C@@H]3O[C@H](CO)[C@H](O)[C@H](O)[C@H]3O)nn2)cc1OCc1cccc(-c2ccccc2)c1C | > 100000 | 612
13 | COc1ccc(CNCc2cn([C@@H]3OC[C@@H](O)[C@@H](O)[C@H]3O)nn2)cc1OCc1cccc(-c2ccccc2)c1C | 31300 | 2260
14 | COc1nc(OCc2cccc(-c3ccccc3)c2C)ccc1CNCc1cn([C@H]2O[C@H](CO)[C@@H](O)[C@H](O)[C@@H]2O)nn1 | 46000 | 164
15 | COc1nc(OCc2cccc(-c3ccccc3)c2C)ccc1CNCc1cnnn1[C@H]1OC[C@@H](O)[C@H](O)[C@@H]1O | 26700 | 118
16 | COc1cc(OCc2cccc(-c3ccccc3)c2C)cc(OC)c1CNCc1cn([C@@H]2OC[C@@H](O)[C@H](O)[C@H]2O)nn1 | 27600 | 353
17 | COc1ccc(CNCc2cn([C@H]3O[C@@H](C)[C@@H](O)[C@@H](O)[C@@H]3O)nn2)cc1OCc1cccc(-c2ccccc2)c1C | 53100 | 1920
18 | COc1cc(OCc2cccc(-c3ccccc3)c2C)cc(OC)c1CNCc1cn([C@@H]2O[C@H](CO)[C@@H](O)[C@H](OC)[C@H]2O)nn1 | 44000 | 355
19 | COc1cc(OCc2cccc(-c3ccccc3)c2C)cc(OC)c1CNCc1cn([C@@H]2OC[C@@H](O)[C@@H](O)[C@H]2O)nn1 | 14900 | 206
20 | COc1cc(OCc2cccc(-c3ccccc3)c2C)cc(OC)c1CNCc1cn([C@@H]2O[C@H](CO)[C@H](O)[C@H](O)[C@H]2O)nn1 | 27300 | 454
21 | COc1ccc(CNCc2cn([C@@H]3O[C@H](CO)[C@@H](O)[C@H](O)[C@H]3O)nn2)cc1OCc1cccc(-c2ccccc2)c1C | > 100000 | 1760
22 | COc1ccc(CNCc2cn([C@@H]3O[C@H](CO)[C@@H](O)[C@H](O)[C@H]3NC(C)=O)nn2)cc1OCc1cccc(-c2ccccc2)c1C | > 100000 | 1090

— ChEMBL document CHEMBL5338801, “Carbohydrate Strengthens the Immunotherapeutic Effect of Small-Molecule PD-L1 Inhibitors” (J Med Chem, 2023)
